Assay results: the supplement of paper PMC10307832

Key:
Test in all cases: relative viability (nuclei count vs DMSO), 5 days (fraction); higher = more cells survive
[1] = compound: O=C(O)c1ccc2c(c1)nc(Nc1cccc(Cl)c1)c1ccncc12 [Silmitasertib] + CC(=O)c1c(C)c2cnc(Nc3ccc(N4CCNCC4)cn3)nc2n(C2CCCC2)c1=O [Palbociclib] (partner 0.5 µM)
Procedure, shortened: (§1)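 Medians of duplicate plates are given as relative viability. That measure is the nuclei count in treated wells divided by the count in vehicle wells. Counts were taken on 4× images of lung cancer cell lines in 1536-well plates, 5 days after pin-tool dosing the day after seeding with one drug alone or a fixed anchor-drug dose plus five library-drug doses (not always all listed) in √10 steps.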

[2] = compound: O=C(O)c1ccc2c(c1)nc(Nc1cccc(Cl)c1)c1ccncc12 [Silmitasertib] + CCNC(=O)c1noc(-c2cc(C(C)C)c(O)cc2O)c1-c1ccc(CN2CCOCC2)cc1 [Luminespib] (partner 0.01 µM)
Procedure, shortened: as §1

[3] = compound: O=C(O)c1ccc2c(c1)nc(Nc1cccc(Cl)c1)c1ccncc12 [Silmitasertib] + C[C@]1(O)C[C@@H](c2nc(-c3ccc4ccc(-c5ccccc5)nc4c3)c3c(N)nccn32)C1 [Linsitinib] (partner 1 µM)
Procedure, shortened: as §1

Silmitasertib + AZD7762 = compound: O=C(O)c1ccc2c(c1)nc(Nc1cccc(Cl)c1)c1ccncc12 [Silmitasertib] + NC(=O)Nc1cc(-c2cccc(F)c2)sc1C(=O)N[C@H]1CCCNC1 [AZD7762] (partner 0.2 µM)
Procedure, shortened: as §1

Silmitasertib + Olaparib = compound: O=C(O)c1ccc2c(c1)nc(Nc1cccc(Cl)c1)c1ccncc12 [Silmitasertib] + O=C(c1cc(Cc2n[nH]c(=O)c3ccccc23)ccc1F)N1CCN(C(=O)C2CC2)CC1 [Olaparib] (partner 8 µM)
Procedure, shortened: as §1

Cell Line	relative viability ([1]; first compound 0.04 µM)	relative viability ([1]; first compound 1.265 µM)	relative viability ([1]; first compound 4 µM)	relative viability ([2]; first compound 0.04 µM)	relative viability ([2]; first compound 1.265 µM)	relative viability ([2]; first compound 4 µM)	relative viability ([3]; first compound 0.04 µM)	relative viability ([3]; first compound 1.265 µM)	relative viability ([3]; first compound 4 µM)	relative viability (Silmitasertib + AZD7762; first compound 0.04 µM)	relative viability (Silmitasertib + AZD7762; first compound 1.265 µM)	relative viability (Silmitasertib + AZD7762; first compound 4 µM)	relative viability (Silmitasertib + Olaparib; first compound 0.04 µM)	relative viability (Silmitasertib + Olaparib; first compound 1.265 µM)	relative viability (Silmitasertib + Olaparib; first compound 4 µM)	relative viability ([3]; first compound 0.4 µM)	relative viability (Silmitasertib + Olaparib; first compound 0.4 µM)	relative viability ([1]; first compound 0.4 µM)	relative viability ([2]; first compound 0.4 µM)	relative viability (Silmitasertib + AZD7762; first compound 0.4 µM)
HOP-62	0.466	0.373	0.396	0.954	1.04	0.969	0.973	0.998	0.703	0.554	0.663	0.385	0.427	0.378	0.338					
IA-LM							0.657	0.717	0.236				0.899	0.791	0.614	0.559	0.561			
LC-2-ad	0.47	0.462	0.538	1.22	1.21	1.09	0.731	0.836	0.918	0.95	0.797	0.494	0.712	0.754	0.663	0.881	0.522	0.499	1.03	0.811
LCLC-97TM1	0.234	0.15	0.151	0.892	0.691	0.442	0.178	0.172	0.14	0.418	0.191	0.128	0.382	0.213	0.234					
LCLC-103H	0.462	0.266	0.389	0.909	0.751	0.548	1.09	1.04	0.796	0.839	0.759	0.588	0.817	0.641	0.664	1.19	0.719	0.45	0.707	0.803
NCI-H520	0.269	0.172	0.245	0.242	0.242	0.289	1.05	1.04	0.785				0.365	0.295	0.262	1.17	0.318	0.238	0.232	
NCI-H596				0.948	0.918	1	1.09	0.839	0.933	1.04	0.953	0.957	0.659	0.685	0.654	1.07	0.597		0.843	1.08
NCI-H661	0.421	0.407	0.359	0.959	0.838	0.825	0.646	0.38	0.577				0.735	0.629	0.493		0.679	0.511	1.04	
NCI-H1563				0.56		0.521	1.32	1.17	1.16							1.22			0.486	
NCI-H1650	0.5	0.25	0.186	0.187	0.192	0.21							0.833	0.646	0.493		0.798	0.436	0.203	
NCI-H1703							1.04	1.23	0.419	0.136	0.153	0.146	0.513	0.541	0.573	0.654	0.368			
